Test results taken from PubChem BioAssay (NCI).
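Where inhibition never reached the appropriate level, the endpoint shown equals the highest concentration tested. Otherwise, values were interpolated linearly from a five-concentration, 48-hour dose response in 96-well plates. TGI: concentration producing complete growth inhibition.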

Legend:
Test in all cases: inhibition of tumour cell growth, NCI panel, 48 h
SK-MEL-5 melanoma = system: SK-MEL-5 melanoma
KM12 colon = system: KM12 colon
LXFL 529 NSCLC = system: LXFL 529 NSCLC
HL-60(TB) leukemia = system: HL-60(TB) leukemia
SNB-75 CNS = system: SNB-75 CNS
A549 NSCLC = system: A549 NSCLC
DMS 273 small cell lung = system: DMS 273 small cell lung
M19-MEL melanoma = system: M19-MEL melanoma
K-562 leukemia = system: K-562 leukemia
RPMI-8226 leukemia = system: RPMI-8226 leukemia
MDA-MB-231 breast = system: MDA-MB-231 breast

Row | Structure (SMILES) | TGI (SK-MEL-5 melanoma) | TGI (KM12 colon) | TGI (LXFL 529 NSCLC) | TGI (HL-60(TB) leukemia) | TGI (SNB-75 CNS) | TGI (A549 NSCLC) | TGI (DMS 273 small cell lung) | TGI (M19-MEL melanoma) | TGI (K-562 leukemia) | TGI (RPMI-8226 leukemia) | TGI (MDA-MB-231 breast)
1 | O=C(CCc1ccccc1)On1nnc2ccccc2c1=O | > 100 µM | > 100 µM | > 100 µM | > 100 µM | > 100 µM | > 100 µM | > 100 µM | > 100 µM | > 100 µM |  | 
2 | CN(/N=C/c1ccnc2ccccc12)c1ccc([N+](=O)[O-])cc1[N+](=O)[O-] | > 100 µM | > 100 µM | > 100 µM | > 100 µM | 40 µM | > 100 µM | > 100 µM | > 100 µM | > 100 µM | > 100 µM | 
3 | Cc1cccc2c1Oc1cc(Cl)ccc1C2NC(=O)CN(C)C (stereo not drawn) | 49.3 µM |  | > 100 µM | 45.3 µM | 68.8 µM | > 100 µM | > 100 µM | 47.6 µM | > 100 µM | > 100 µM | 
4 | CC1=Nc2c([nH]c(=S)[nH]c2=O)NC(c2ccc(Cl)c(Cl)c2)C1 (stereo not drawn) | > 60.7 µM | 32.3 µM | 37.8 µM | > 100 µM | > 100 µM | 47.5 µM | > 72.9 µM | 34.2 µM | > 100 µM | > 100 µM | 
5 | CC(=O)OCC(OC(C)=O)C(OC(C)=O)C(OC(C)=O)C(=O)CNn1c(-c2ccccc2)nc2ccc(Br)cc2c1=O (stereo not drawn) | > 100 µM | > 100 µM | > 100 µM | > 100 µM | > 100 µM | > 100 µM | > 100 µM | > 100 µM | > 100 µM | > 100 µM | 
6 | OCC(O)COc1c(Cl)ccc(Cl)c1Cl (stereo not drawn) | > 100 µM | > 100 µM | > 100 µM | > 100 µM | > 100 µM | > 100 µM | > 100 µM | > 100 µM | > 100 µM |  | 
7 | CN(C)c1nc(N(C)C)n2nc(-c3ccccc3[N+](=O)[O-])nc2n1 | > 100 µM | > 100 µM | > 100 µM | > 100 µM | > 100 µM | > 100 µM | > 100 µM | > 100 µM | > 100 µM | > 100 µM | 
8 | NS(=O)(=O)c1ccc(NC(=O)CC(=O)Nc2ccc(S(N)(=O)=O)cc2)cc1 | > 100 µM |  | > 100 µM | > 100 µM | > 100 µM | > 100 µM | > 100 µM | > 100 µM | > 100 µM | > 100 µM | 
9 | O=C1OC(c2ccccc2)=N/C1=C\c1c(O)cc(O)cc1O | > 100 µM | > 100 µM | > 100 µM |  | > 100 µM | > 100 µM | > 100 µM | > 100 µM | > 100 µM | > 100 µM | 
10 | Cc1[nH]c(=O)nc(CC(O)(c2ccccc2)c2ccccc2)c1-c1ccccc1 | > 100 µM | > 100 µM | > 100 µM | > 100 µM | > 100 µM | > 100 µM | > 100 µM | > 100 µM | > 100 µM |  | 
11 | CC(C)CC(CNC(Cc1ccc(Cl)cc1)C(N)=O)NC(=O)C(Cc1cnc[nH]1)NC(=O)CNC(=O)C(NC(=O)C(C)NC(=O)C(Cc1c[nH]c2ccccc12)NC(=O)C(CCC(=O)O)NC(=O)C(N)Cc1ccccc1)C(C)C (stereo not drawn) |  | > 133 µM | > 133 µM | > 133 µM | > 133 µM | > 133 µM | > 133 µM | > 133 µM | > 133 µM | > 133 µM | 
12 | N#CCC(=O)N/N=C1/C(=O)NC(=O)C(=O)C1c1nc2ccccc2s1 (stereo not drawn) | > 100 µM |  | > 100 µM |  | > 100 µM | > 100 µM | > 100 µM | > 100 µM | > 100 µM | > 100 µM | 
13 | CCOC(OCC)c1ccc(/C=C/c2cc(OC)c(OC)c(OC)c2)cc1 | 28.5 µM |  | 41.7 µM | 30.1 µM | 57.5 µM | 95.2 µM | 41.3 µM | 37 µM | 39.8 µM | 63 µM | 
14 | COC(=O)C1=C(c2cc(OC)c(OC)c(OC)c2)OC(c2cc(OC)c(OC)c(OC)c2)C1COC(C)=O (stereo not drawn) | 97.8 µM | > 100 µM | > 100 µM | 30.5 µM | > 100 µM | > 100 µM | > 100 µM | > 100 µM | > 100 µM | > 100 µM | 
15 | COc1ccc(/C=C/c2nc(=S)[nH][nH]2)cc1 | > 100 µM |  | > 100 µM | > 100 µM | > 100 µM | > 100 µM | > 100 µM | > 100 µM | > 100 µM | > 100 µM | 
16 | O=C(CCC(=O)N/N=C/c1ccccc1O)N/N=C/c1ccccc1O | > 100 µM | > 100 µM | > 100 µM |  | 31.7 µM | > 100 µM | > 100 µM | > 100 µM | > 100 µM | > 100 µM | 
17 | C=C1CC2(OC1=O)c1ccccc1C=Cc1ccccc12 | 16.4 µM | 12.3 µM | 7.14 µM | 4.86 µM | 20.2 µM | 23.3 µM | 28.2 µM | 11.8 µM | 10.7 µM | 8.68 µM | 5.41 µM
18 | COc1ccc(/C(Cl)=C(\C=O)c2ccc(Br)cc2)cc1OC | > 100 µM | > 100 µM | > 100 µM | > 100 µM | 30 µM | > 100 µM | > 100 µM | > 100 µM | > 100 µM | > 100 µM | 
19 | Fc1ccc(F)c(C2SCc3nc4ccccc4n32)c1 (stereo not drawn) | 46.6 µM | > 100 µM | > 100 µM | 53.9 µM | > 100 µM | > 100 µM | 64.3 µM | > 100 µM | > 100 µM | > 100 µM | 
20 | Cc1c(C2Cc3ccccc3N2C(=O)/C=C\C(=O)O)c2ccccc2n1C (stereo not drawn) | 41.5 µM | 35.6 µM | 34.8 µM | 51.6 µM | 74.2 µM | > 100 µM | > 100 µM | 52.3 µM | > 100 µM |  | 
